Data published in paper PMC10992144, “Construction of fatty acid derivatives from rubber seed oil as α-glucosidase inhibitors based on rubber seed oil” (Bioresources and Bioprocessing, 2022).
Like-named read-outs stand apart in the source and are kept apart here.

Key:
[1] = target: T1, α-Glucosidase from recombinant yeast (Saccharomyces cerevisiae, UniProt P53341); assay: biochemical; type: biochemical; conditions: for Inhibitory score: 1/IC50, Table 4, S4
T1 construct: purchased Shanghai yuanye Bio-Technology Co. Ltd; host or cells: recombinant yeast
Protocol: Fatty acids and their derivates were diluted in 0.1 M, pH = 6.9 phosphate buffer with 0.5% (v/v) DMSO as cosolvent, to prepare […] sample solutions. 50 μL sample solution and 100 μL 0.5 U α-glucosidase (prepared in the same phosphate buffer) were added into 1.5-mL plastic tubes, incubated at 37 °C, 10 min. Then, 50 μL 5 mM α-PNPG (prepared in the same buffer) was added into the plastic tube, incubated for another 10 min at 37 °C. At the end, 1 M Na2CO3 was added to terminate the reaction.
The Inhibitory score measures the inhibitory intensity of each sample on α-glucosidase, calculated by 1/IC50. Data were subjected to the one-way ANOVA analysis by SPSS 23.0, shown as mean ± SD (n = 3).

α-glucosidase = conditions: result in words; ref Paul et al. ([2010]); cited from earlier work
[2] = 0.1 M phosphate buffer pH 6.9, 0.5% DMSO, 37 °C, α-PNPG, mean ± SD (n = 3), read-out: IC50

T1 sequence (P53341 whole entry): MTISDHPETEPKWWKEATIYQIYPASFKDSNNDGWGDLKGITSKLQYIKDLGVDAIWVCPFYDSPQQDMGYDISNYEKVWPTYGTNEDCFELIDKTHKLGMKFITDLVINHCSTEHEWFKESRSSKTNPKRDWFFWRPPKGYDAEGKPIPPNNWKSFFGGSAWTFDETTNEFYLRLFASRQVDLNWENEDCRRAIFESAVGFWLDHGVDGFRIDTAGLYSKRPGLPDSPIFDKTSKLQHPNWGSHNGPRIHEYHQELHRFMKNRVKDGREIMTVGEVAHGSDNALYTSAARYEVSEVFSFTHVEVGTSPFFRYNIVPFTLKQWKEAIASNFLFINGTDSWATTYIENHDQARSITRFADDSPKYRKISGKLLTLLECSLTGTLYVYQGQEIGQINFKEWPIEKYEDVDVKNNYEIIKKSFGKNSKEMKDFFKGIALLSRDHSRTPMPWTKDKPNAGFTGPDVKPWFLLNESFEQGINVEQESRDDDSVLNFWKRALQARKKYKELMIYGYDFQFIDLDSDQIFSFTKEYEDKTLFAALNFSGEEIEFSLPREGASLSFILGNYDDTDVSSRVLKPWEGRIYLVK

Row | Compound | Inhibitory score [1] | IC50 [1, 2] [µM] | further results
1 | CCCCC/C=C\CC(O)CCCCCCCCC(=O)O (stereo not drawn) [10-HOA, 10-hydroxy-cis-12-octadecenoic acid] | 2.58 | – | IC50 [1]: 0.39 ± 0.01 µM
2 | CCCCCCCCC(O)CCCCCCCCC(=O)O (stereo not shown) [10-HSA, 10-hydroxystearic acid] | 0.58 | 1.71 ± 0.02 | –
3 | CCCCCCCCC(O)/C=C/CCCCCCC(=O)O (stereo not shown) [10-hydroxy-8 (E)-octadecenoic acid] | – | – | inhibition of α-glucosidase (α-glucosidase): useful inhibitor
4 | CCCCCCCC/C=C\CCCCCCCC(=O)OCCCC [Butyl, butyl oleate] | 0.43 | 2.34 ± 0.11 | –
5 | CCCCCCCCCC(=O)O [C10:0, capric acid] | – | 114 ± 2.37 | –
6 | CCCCCCCCCCCC(=O)O [C12:0, lauric acid] | – | 135 ± 6.43 | –
7 | CCCCCCCCCCCCCC(=O)O [C14:0, myristic acid] | – | 56.2 ± 2.81 | –
8 | CCCCCCCCCCCCCCCC(=O)O [C16:0, palmitic acid] | – | 13.97 ± 0.01 | –
9 | CCCCC/C=C\C/C=C\CCCCCCCC(=O)O [C18:2, linoleic acid] | – | – | IC50 [1]: 0.6 ± 0.01 µM
10 | CC/C=C\C/C=C\C/C=C\CCCCCCCC(=O)O [C18:3, α-linolenic acid] | – | – | IC50 [1]: 0.54 ± 0.01 µM
11 | CCCCCCCC/C=C\CCCCCCCC(=O)OCCCCCC [Hexyl, hexyl oleate] | 0.24 | 4.16 ± 0.21 | –
12 | CCCCCCCC/C=C\CCCCCCCC(=O)OC(C)C [Isopropyl, isopropyl oleate] | 1.67 | 0.6 ± 0.01 | –
13 | CCCCCCCC/C=C\CCCCCCCC(=O)OCCCCCCCC [Octyl, octyl oleate] | 0.31 | 3.25 ± 0.08 | –
14 | CCCCCCCC/C=C\CCCCCCCC(=O)OCCCCC [Pentyl, amyl oleate] | 0.31 | 3.21 ± 0.17 | –
15 | CCCCCCCC/C=C\CCCCCCCC(=O)OCCC [Propyl, propyl oleate] | 0.57 | 1.75 ± 0.04 | –
16 | CCCCCCCC/C=C\CCCCCCCC(=O)O [cis-C18:1, Oleic acid] | – | 0.81 ± 0.04 | Inhibitory score ([1]; listed as OA): 1.23
